Reference: PubChem BioAssay AID1919010 (Molecular Pharmacology Branch, DTP, NCI, 2023)

Tested on: Hs578T complex spheroid growth, percent test/control
Assay: Anticancer human tumor Hs578T cell line growth inhibition [AhR];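 note: luminescent viability signal as a proxy for spheroid growth; spheroids exposed to agents for one week after three days of growth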
Conditions: for IC50: curve of first compound; for viability, T/C: stronger effect = lower value
Text: Multicellular complex tumor spheroid response to aryl hydrocarbon receptor antagonists in combination with a variety of drugs and investigational agents in selected tumor cell lines
The current study was undertaken to assess response to aryl hydrocarbon receptor antagonists in combination with standard-of-care drugs and investigational agents in solid tumor complex spheroid models. Complex spheroids include a stromal component modeled by human endothelial cells (HUVEC) and fibroblasts modeled by human mesenchymal stem cells (MSCs). The concentration ranges selected for each drug and investigational agent were based upon clinically achievable concentrations if the clinical Cmax of the agent was known.
Compounds. The drugs and investigational agents: BAY 2416964 (NSC825713), GNF351 (NSC835774), CH-223191 (NSC835775), CPI-455 (NSC825282), aza-TdCyd (NSC777586), decitabine (NSC127716), belinostat (NSC758774), entinostat (NSC756642), pevonedistat (NSC761192), tazemetostat (NSC777109), talazoparib (NSC765396), olaparib (NSC753686), selinexor (NSC780203), nedisertib (M3814, NSC802822), bortezomib (NSC756655), venetoclax (NSC766270), doxorubicin (NSC123127), elimusertib (BAY189344, NSC800525), ceralasertib (AZD6738, NSC777638), TAK-243 (NSC785004), alisertib (NSC759677), etoposide (NSC141540), topotecan (NSC609699), eribulin (NSC707389), gemcitabine (NSC613327), carboplatin (NSC241240), cisplatin (NSC119875), and SN-38 (NSC673596) were obtained from the National Cancer Institute (NCI) Developmental Therapeutics Program Chemical Repository (32). The FDA-approved anticancer drug set is available from the Developmental Therapeutics Program at https://dtp.cancer.gov/organization/dscb/obtaining/available plates.htm. […] The stock solutions were prepared in dimethyl sulfoxide (DMSO, Sigma-Aldrich, St. Louis, MO, cat. D2650), except for the platinum compounds which were prepared in saline (Quality Biological, Gaithersburg, MD, cat. 114-055-101), at 800-fold the tested concentration and stored at -70 degrees C prior to their use. All drugs and investigational agents were tested over a range starting from a high concentration at or near the clinical Cmax and decreasing in half-log increments. If the clinical Cmax for an agent had not been determined, the highest concentration tested was 10 microM (Table 1).
Cell Culture. All cells were maintained in an incubator at 37 degrees C and 5% CO2 with 95% humidity. The PDC lines were cultured according to standard operating procedures established by the NCI PDMR (https://pdmr.cancer.gov). Briefly, all PDCs were thawed and cultured in Matrigel-coated flasks prepared with a working solution of 1X Ham's F-12 nutrient mix, without supplementation (Invitrogen, Waltham, MA, cat. 11765054), 100 U/mL penicillin-streptomycin (Invitrogen, cat. 15140122), and 2.5% Matrigel (Corning Inc., Corning, NY, cat. 354248) for the first three passages. All PDCs were cultured in complete DMEM/F-12 media containing advanced DMEM/F-12 (Invitrogen, cat. 12634028), 4.9% defined fetal bovine serum, heat inactivated (HyClone Laboratories Inc., Logan, UT, cat. SH30070.03HI), 389 ng/mL hydrocortisone (Sigma-Aldrich, cat. H4001), 9.7 ng/mL human EGF recombinant protein (Invitrogen, cat. PHG0313), 23.4 microg/mL adenine (Sigma-Aldrich, cat. A2786), 97.3 U/mL penicillin-streptomycin (Invitrogen, cat. 15140122), 1.9 mM L-glutamine (Invitrogen, cat. 25030081), and 9.7 microM Y-27632 dihydrochloride (Tocris Bioscience, Bristol, United Kingdom, cat. 1254). The PDCs were cultured in complete DMEM/F12 media without 10 microM Y-27632 dihydrochloride for at least two passages prior to the screen. The established cell lines NCI-H1341 and […] were cultured in DMEM/F-12, HEPES (Invitrogen, cat. 11330032), 5% defined fetal bovine serum (HyClone Laboratories Inc., cat. SH30070.03), ITS premix universal culture supplement [insulin (5 microg/mL), transferrin (5 microg/mL), and selenious acid (5 ng/mL)] […]

[1] = second compound 0.1 µM, first compound 0.0316 µM
[2] = second compound 0.1 µM, first compound 0.1 µM
[3] = second compound 0.1 µM, first compound 0.316 µM
[4] = second compound 0.1 µM, first compound 1 µM
[5] = second compound 0.1 µM, first compound 3.16 µM
[6] = second compound 0.1 µM, first compound 10 µM
[7] = second compound 0.316 µM, first compound 0.0316 µM
[8] = second compound 0.316 µM, first compound 0.1 µM
[9] = second compound 0.316 µM, first compound 0.316 µM
[10] = second compound 0.316 µM, first compound 1 µM
[11] = second compound 0.316 µM, first compound 3.16 µM
[12] = second compound 0.316 µM, first compound 10 µM
[13] = second compound 1 µM, first compound 0.0316 µM
[14] = second compound 1 µM, first compound 0.1 µM
[15] = second compound 1 µM, first compound 0.316 µM
[16] = second compound 1 µM, first compound 1 µM
[17] = second compound 1 µM, first compound 3.16 µM
[18] = second compound 1 µM, first compound 10 µM
[19] = second compound 3.16 µM, first compound 0.0316 µM
[20] = second compound 3.16 µM, first compound 0.1 µM
[21] = second compound 3.16 µM, first compound 0.316 µM
[22] = second compound 3.16 µM, first compound 1 µM
[23] = second compound 3.16 µM, first compound 3.16 µM
[24] = second compound 3.16 µM, first compound 10 µM
[25] = second compound 10 µM, first compound 0.0316 µM
[26] = second compound 10 µM, first compound 0.1 µM
[27] = second compound 10 µM, first compound 0.316 µM
[28] = second compound 10 µM, first compound 1 µM
[29] = second compound 10 µM, first compound 3.16 µM
[30] = second compound 10 µM, first compound 10 µM

| Compound | IC50 (second compound 0.1 µM) [nM] | IC50 (second compound 0.316 µM) [nM] | IC50 (second compound 1 µM) [nM] | IC50 (second compound 3.16 µM) [nM] | IC50 (second compound 10 µM) [nM] | viability, T/C [1] [%] | viability, T/C [2] [%] | viability, T/C [3] [%] | viability, T/C [4] [%] | viability, T/C [7] [%] | viability, T/C [8] [%] | viability, T/C [9] [%] | viability, T/C [10] [%] | viability, T/C [13] [%] | viability, T/C [14] [%] | viability, T/C [15] [%] | viability, T/C [16] [%] | viability, T/C [19] [%] | viability, T/C [20] [%] | viability, T/C [21] [%] | further results |
| --- | --- | --- | --- | --- | --- | --- | --- | --- | --- | --- | --- | --- | --- | --- | --- | --- | --- | --- | --- | --- | --- |
| COc1cc(C2c3cc4c(cc3C(OC3OC5COC(C)OC5C(O)C3O)C3COC(=O)C23)OCO4)cc(OC)c1O (stereo not given) + CC(CO)NC(=O)c1cc(-c2ccc(Cl)cc2)nn(-c2cnn(C)c2)c1=O | > 10000 | > 10000 | > 10000 | > 10000 | > 10000 | 103 | 109 | 87.9 | 79.2 | 111 | 99.2 | 105 | 83.2 | 108 | 123 | 88.7 | 80.1 | 116 | 102 | 99.9 | viability, T/C [5]: 81%; viability, T/C [6]: 64.9%; viability, T/C [11]: 73.8%; viability, T/C [12]: 57.1%; viability, T/C [17]: 89.1%; viability, T/C [18]: 60.5%; viability, T/C [22]: 86.2%; viability, T/C [23]: 79.2%; viability, T/C [24]: 60.7%; viability, T/C [25]: 83.7%; viability, T/C [26]: 88.3%; viability, T/C [27]: 89.1%; viability, T/C [28]: 76.6%; viability, T/C [29]: 83.4%; viability, T/C [30]: 58.9% |
| COc1cccc2c1C(=O)c1c(O)c3c(c(O)c1C2=O)CC(O)(C(=O)CO)CC3OC1CC(N)C(O)C(C)O1 (stereo not given) + CC(CO)NC(=O)c1cc(-c2ccc(Cl)cc2)nn(-c2cnn(C)c2)c1=O | 469 | 502 | 497 | 398 | 374 | 96.3 | 86.2 | 64.6 | 23.9 | 78.7 | 84.3 | 66.8 | 24.1 | 92 | 88.1 | 67.8 | 22.7 | 88.6 | 91 | 58.1 | viability, T/C [5]: 3.62%; viability, T/C [6]: 3.54%; viability, T/C [11]: 2.56%; viability, T/C [12]: 2.88%; viability, T/C [17]: 3.26%; viability, T/C [18]: 2.93%; viability, T/C [22]: 14.6%; viability, T/C [23]: 2.55%; viability, T/C [24]: 3.04%; viability, T/C [25]: 78.3%; viability, T/C [26]: 86.4%; viability, T/C [27]: 57.8%; viability, T/C [28]: 4.9%; viability, T/C [29]: 2.84%; viability, T/C [30]: 2.14% |
| Nc1ncn(C2CC(O)C(CO)O2)c(=O)n1 (stereo not given) + CC(CO)NC(=O)c1cc(-c2ccc(Cl)cc2)nn(-c2cnn(C)c2)c1=O | > 1000 | > 1000 | > 1000 | > 1000 | > 1000 | 118 | 107 | 103 | 95.5 | 110 | 114 | 120 | 109 | 103 | 102 | 107 | 96 | 117 | 114 | 101 | viability, T/C (second compound 0.1 µM, first compound 0.00316 µM): 109%; viability, T/C (second compound 0.1 µM, first compound 0.01 µM): 107%; viability, T/C (second compound 0.316 µM, first compound 0.00316 µM): 106%; viability, T/C (second compound 0.316 µM, first compound 0.01 µM): 114%; viability, T/C (second compound 1 µM, first compound 0.00316 µM): 117%; viability, T/C (second compound 1 µM, first compound 0.01 µM): 108%; viability, T/C (second compound 3.16 µM, first compound 0.00316 µM): 109%; viability, T/C (second compound 3.16 µM, first compound 0.01 µM): 109%; viability, T/C [22]: 97%; viability, T/C (second compound 10 µM, first compound 0.00316 µM): 96.9%; viability, T/C (second compound 10 µM, first compound 0.01 µM): 100%; viability, T/C [25]: 105%; viability, T/C [26]: 99.6%; viability, T/C [27]: 92.9%; viability, T/C [28]: 100% |
